Columns and labels:
WNV NS2B-NS3pro = biological target: T1, WNV NS2B-NS3pro (West Nile virus, UniProt P06935); assay: Inhibition of NS2B-NS3pro proteolysis, WNV; type: biochemical; details: in vitro
T1 construct: comprises an NS2B polypeptide that associates with a proteolytic N-terminal fragment of NS3 polypeptide (NS3pro); a proteolytic N-terminal fragment of NS3 polypeptide (NS3pro) to form NS2B-NS3pro
Excerpt: (§1) The open conformation of NS2B-NS3pro is formed by rearrangement/dissociation of the NS2B cofactor from the C-terminal half of NS3pro, leading to a loss of proteolytic activity. NS2B dissociation uncovers a hydrophobic cleft in NS3pro, which presents a druggable pocket that is relatively conserved between the flaviviruses. Allosteric inhibitors of ZIKV, WNV, and DENV2 NS2B-NS3pro were designed in silico to bind a region of NS2B-NS3pro distant from the proteolytic active site. […] RNA binding to ZIKV NS2B-NS3pro was tested with a sub-library of these inhibitors, and some compounds were potent inhibitors of RNA binding to ZIKV NS2B-NS3pro, as depicted in FIG. 7. In Top of FIG. 7, small molecule allosteric inhibitors (10 μM) targeting open/super-open conformations of ZIKV NS2B-NS3pro block ssRNA binding. Fluorescent polarization (%) using FAM labeled ssRNA (20 poly-rU). * p<0.05, […], *** p<0.0005, […] by two-tailed unpaired t-test with Welch's correction. In Bottom of FIG. 7, IC50 for inhibition of ZIKV, WNV, and DENV2 NS2B-NS3pro proteolysis by the indicated inhibitors. […] NSC86314 was previously shown to inhibit WNV and DENV2 replicons in cell-based assays with IC50 values of<50 μM. […]

DENV2 NS2B-NS3pro = biological target: T2, DENV2 NS2B-NS3pro (Dengue virus type 2, UniProt P29990); assay: Inhibition of NS2B-NS3pro proteolysis, DENV2; type: biochemical; details: in vitro
T2 construct: comprises an NS2B polypeptide that associates with a proteolytic N-terminal fragment of NS3 polypeptide (NS3pro); a proteolytic N-terminal fragment of NS3 polypeptide (NS3pro) to form NS2B-NS3pro
Excerpt: as §1

DENV2 replicons = details: cell-based assays, previously shown; cited from earlier work
ZIKV NS2B-NS3pro [1] = biological target: T3, ZIKV NS2B-NS3pro (Zika virus, UniProt A0A024B7W1); assay: Fluorescent proteinase activity assay (Pyr-RTKR-AMC cleavage); type: biochemical
T3 construct: hydrophilic cytoplasmic portion of NS2B (residues 48-94) was linked to the NS3 protease domain; was linked to the NS3 protease domain via a 9-residue linker L; His tag (N, cleaved yes); made in house; host or cells: E. coli BL21 (DE3) Codon Plus
Description: Fluorescent proteinase activity assay and IC50 determination. The peptide cleavage activity assays with purified ZIKV NS2B-NS3pro polypeptides were performed in 0.2 ml TBS containing 20% glycerol and 0.005% Brij 35 containing 20 μM of the cleavage peptide pyroglutamic acid Pyr-Arg-Thr-Lys-Arg-7-amino-4-methylcoumarin (Pyr-RTKR-AMC) and 10 nM enzyme. The reaction velocity was monitored continuously at λex=360 nm and λem=465 nm on a Tecan fluorescence spectrophotometer (Männedorf, Switzerland). To determine the IC50 values of the inhibitory compounds, ZIKV NS2B-NS3pro constructs (20 nM) were preincubated for 30 min at 20° C. with various concentrations of compounds in 0.1 ml TBS containing 20% glycerol and 0.005% Brij 35. Pyr-RTKR-AMC substrate (20 μM) was then added in 0.1 ml of the same buffer. IC50 values were calculated by determining the compound concentration required to obtain 50% of the maximal inhibition of NS2B-NS3pro activity against Pyr-RTKR-AMC. GraphPad Prism was used as fitting software. All assays were performed in triplicate in 96-well plates.
Fluorogenic substrate cleavage assays were performed to test whether binding of RNA interferes with the proteolytic activity of NS2B-NS3pro.

WNV replicons = details: cell-based assays, previously shown; cited from earlier work
ZIKV NS2B-NS3pro [2] = biological target: T3, ZIKV NS2B-NS3pro; assay: Inhibition of ssRNA binding to NS2B-NS3pro by inhibitors (RNA FP assay)
Excerpt: The DNA constructs were cloned into pGEX6P1 plasmid using BamH1 and EcoR1 cleavage sites, resulting in fusion of a GST tag at the N-terminus of the NS2B cofactor. E. coli were transformed with the individual recombinant constructs, and protein production was induced and the cells were disrupted as described above. The supernatant fraction containing the GST-tagged constructs were loaded onto Protino Glutathione Agarose 4B beads and impurities were removed by washing with TBS. To cleave the GST tag from the viral protease, the beads were co-incubated with 3C protease. The NS2B-NS3pro constructs were then additionally purified by gel filtration on an S200 26/60 column equilibrated with TBS. Purity of the purified construct was analyzed using SDS-PAGE followed by Coomassie staining. Purified protease was concentrated to approximately 10 mg/ml using 10 kDa-cutoff concentrators, flash frozen in small aliquots, and stored at −80° C. […]
Fluorescence polarization assay of RNA/ssDNA binding to ZIKV NS2B-NS3 protease. Binding between purified recombinant ZIKV NS2B-NS3pro constructs and either RNA or ssDNA was assessed using a fluorescence polarization (FP) assay conducted in 0.1 ml of TBS containing 1 mM MgCl2 at 25° C. for 1 h. […] Polarization was monitored on a Bruker Daltonics fluorescence spectrophotometer. […]

T3 sequence (A0A024B7W1 1503-1680): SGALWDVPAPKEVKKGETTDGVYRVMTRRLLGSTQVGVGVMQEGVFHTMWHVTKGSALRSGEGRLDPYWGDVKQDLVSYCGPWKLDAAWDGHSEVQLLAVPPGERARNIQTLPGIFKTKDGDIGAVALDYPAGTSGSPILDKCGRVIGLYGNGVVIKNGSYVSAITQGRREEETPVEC
T3 sequence (A0A024B7W1 1420-1466): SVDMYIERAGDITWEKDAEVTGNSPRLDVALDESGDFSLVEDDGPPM
T1 sequence (P06935 1371-1501): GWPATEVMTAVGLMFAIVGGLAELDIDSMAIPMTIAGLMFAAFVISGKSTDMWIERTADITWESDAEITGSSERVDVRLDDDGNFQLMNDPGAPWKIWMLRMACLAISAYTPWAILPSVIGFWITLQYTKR
T1 sequence (P06935 1502-1679): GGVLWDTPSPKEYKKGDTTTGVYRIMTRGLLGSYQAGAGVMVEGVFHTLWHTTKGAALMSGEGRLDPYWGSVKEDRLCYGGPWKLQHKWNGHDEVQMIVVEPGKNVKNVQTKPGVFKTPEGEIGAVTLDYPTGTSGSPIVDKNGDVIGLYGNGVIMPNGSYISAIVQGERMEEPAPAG
T2 sequence (P29990 1346-1475): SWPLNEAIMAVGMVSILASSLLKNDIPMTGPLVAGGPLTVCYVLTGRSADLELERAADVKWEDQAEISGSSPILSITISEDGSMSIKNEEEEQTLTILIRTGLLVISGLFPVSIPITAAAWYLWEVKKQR
T2 sequence (P29990 1476-1653): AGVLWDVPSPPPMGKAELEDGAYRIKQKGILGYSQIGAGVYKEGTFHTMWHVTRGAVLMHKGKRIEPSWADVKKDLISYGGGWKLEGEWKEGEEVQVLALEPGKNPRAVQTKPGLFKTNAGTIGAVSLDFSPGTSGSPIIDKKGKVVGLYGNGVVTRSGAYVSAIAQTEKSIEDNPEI

Nc1cc(N)c(N=Nc2ccc(S(=O)(=O)Nc3nccs3)cc2)cc1N=Nc1ccc(S(=O)(=O)Nc2nccs2)cc1 [NSC86314]
IC50, NS2B-NS3pro from WNV (WNV NS2B-NS3pro): low to sub-micromolar
IC50, NS2B-NS3pro from DENV (DENV2 NS2B-NS3pro): low to sub-micromolar
IC50 (DENV2 replicons): < 50 µM
IC50, NS2B-NS3pro from ZIKV (ZIKV NS2B-NS3pro [1]; in vitro): low to sub-micromolar
IC50 (WNV replicons): < 50 µM

O=C(O)c1cc(/N=N/c2ccc(S(=O)(=O)Nc3nccs3)cc2)ccc1O [NSC114428]
Inhibition of proteolytic activity of ZIKV protease (ZIKV NS2B-NS3pro [1]; FIG. 7): low μM range
Inhibition of RNA binding (ZIKV NS2B-NS3pro [2]; FIG. 7): low μM range

aprotinin
RNA binding to purified NS2B-NS3pro-inhibitor complex (ZIKV NS2B-NS3pro [2]; closed conformation induced by substrate-mimicking inhibitor): no RNA binding

Source: US20240166726A1, “UNIVERSAL TARGETING STRATEGY TO INHIBIT REPLICATION OF ZIKV AND FLAVIVIRUSES” (Sanford Burnham Prebys Medical Discovery Institute, priority 2022, published 2024)
